According to PubChem BioAssay AID792 (PCMD, 2007):
Records with an inconclusive call do not appear. Active and inactive are the calls of the source. No rule for the calls is given here.

Target: S. cerevisiae eIF2B mutant, luciferase reporter luminescence
Assay: eIF2B reporter inhibitors in yeast strains, dose response, S. cerevisiae, mutant, wild-type, luminescence, growth (AID 792)
[1] = measured here: mutant yeast growth
[2] = S. cerevisiae wild-type, luminescence

## CCOC(=O)Cn1c(=O)c2c(nc3n2CCN3Cc2ccccc2)n(C)c1=O
  IC50: > 100 µM (inactive)
[1]
  IC50: > 100 µM

## CCOc1ccccc1N1CC(C(=O)N2CCc3ccccc32)CC1=O (stereo unspecified)
  IC50: > 100 µM (inactive)
[1]
  IC50: > 100 µM

## C=CCN(C(=O)CCC(=O)O)C1CC(=O)N(c2ccc(OC)cc2)C1=O (stereo unspecified)
  IC50: > 100 µM (inactive)
[1]
  IC50: > 100 µM

## CS(=O)(=O)c1ccc2nc(NC(=O)C3C4C=CC(C4)C3C(=O)O)sc2c1 (stereo unspecified)
  IC50: > 100 µM (inactive)
[1]
  IC50: > 100 µM

## CN1C(=O)c2ccccc2Sc2ccc(C(=O)N3CCC4(CC3)OCCO4)cc21
  IC50: > 100 µM (inactive)
[1]
  IC50: > 100 µM

## C=CCc1cccc(CNc2nc3ccccc3n2C(C)C)c1O
  IC50: > 100 µM (inactive)
[1]
  IC50: > 100 µM

## CCC(C(=O)NCc1ccc(OC)cc1)n1nc(C)n2c(cc3occc32)c1=O (stereo unspecified)
  IC50: > 100 µM (inactive)
[1]
  IC50: > 100 µM

## O=C(Nc1nc(-c2ccc(S(=O)(=O)N3CCCCCC3)cc2)cs1)c1cccs1
  IC50: > 100 µM (inactive)
[1]
  IC50: > 100 µM

## Cc1noc(C)c1C(=O)Nc1ccc2c(c1)CCC2
  IC50: > 100 µM (inactive)
[1]
  IC50: > 100 µM

## C=CCOC(=O)C1=C(C)Nc2nc3ccccc3n2C1c1ccncc1 (stereo unspecified)
  IC50: > 100 µM (inactive)
[1]
  IC50: > 100 µM

## CCn1c(SCC(=O)Nc2oc(-c3ccccc3)c(-c3ccccc3)c2C#N)nnc1-c1ccco1
  IC50: > 100 µM (inactive)
[1]
  IC50: > 100 µM

## CCOC(=O)c1c(-c2ccco2)csc1NC(=O)CSc1nnc(N)s1
  IC50: > 100 µM (inactive)
[1]
  IC50: > 100 µM

## Cc1cc(C(=O)Nc2sc3c(c2C#N)CCC(C)C3)no1 (stereo unspecified)
  IC50: > 100 µM (inactive)
[1]
  IC50: > 100 µM

## Cc1ccc(-c2nnc(COc3cccc(-n4cnnn4)c3)o2)cc1
  IC50: > 100 µM (inactive)
[1]
  IC50: > 100 µM

## Cc1ccc(S(=O)(=O)N2CCOCC2)cc1C(=O)NCc1ccco1
  IC50: > 100 µM (inactive)
[1]
  IC50: > 100 µM

## CCOC(=O)CC(=O)CSc1nc(C)cc(-c2cccnc2)c1C#N
  IC50: > 100 µM (inactive)
[1]
  IC50: > 100 µM

## C=CCNc1nc(-c2cccc(OC)c2O)nc2ccccc12
  IC50: > 100 µM (inactive)
[1]
  IC50: > 100 µM

## N#Cc1cc2ccccc2nc1SCc1cccnc1
  IC50: > 100 µM (inactive)
[1]
  IC50: > 100 µM

## CCOC(=O)C1=C(C)NC(C)=C(C(=O)OCC)C1C(=O)OCC(=O)N1CCc2ccccc2C1
  IC50: > 100 µM (inactive)
[1]
  IC50: > 100 µM

## CCOC(=O)C1CCCN(C(=O)C(C)Oc2ccc(Cl)cc2Cl)C1 (stereo unspecified)
  IC50: > 100 µM (inactive)
[1]
  IC50: > 100 µM

## COC(=O)[C@H](Cc1ccccc1)NC(=O)NCc1ccccc1OC
  IC50: > 100 µM (inactive)
[1]
  IC50: > 100 µM

## Cn1c(/C(C#N)=C(\O)CN2CCN(Cc3ccccc3)CC2)nc2ccccc21
  IC50: > 100 µM (inactive)
[1]
  IC50: > 100 µM

## CCOC(=O)c1cc(S(=O)(=O)N2CCN(C(=O)OCC)CC2)cn1C
  IC50: > 100 µM (inactive)
[1]
  IC50: > 100 µM

## O=c1c2ccccc2nc(CN2CCOCC2)n1-c1ccccc1F
  IC50: > 100 µM (inactive)
[1]
  IC50: > 100 µM

## O=C(Nc1nnc(COc2ccc(Cl)cc2)s1)c1cccs1
  IC50: > 100 µM (inactive)
[1]
  IC50: > 100 µM

## Nc1ccc2oc(CCc3ccccc3)nc2c1
  IC50: > 100 µM (inactive)
[1]
  IC50: > 100 µM

## CCOC(=O)N1CCN(C(=O)c2nn(-c3cc(OC)cc(OC)c3)c(=O)c3ccccc23)CC1
  IC50: > 100 µM (inactive)
[1]
  IC50: > 100 µM

## CC1(C)CC(=O)c2cc(OCC(=O)NCCCN3CCN(c4ccccc4F)CC3)ccc2O1
  IC50: > 100 µM (inactive)
[1]
  IC50: > 100 µM

## CCN(CC)c1ncnc2sc(C(=O)N3CCN(c4ccc(OC)cc4)CC3)c(C)c12
  IC50: > 100 µM (inactive)
[1]
  IC50: > 100 µM

## c1ccc(CCc2nc(-c3ccncc3)no2)cc1
  IC50: > 100 µM (inactive)
[1]
  IC50: > 100 µM

## O=C(c1ccc2c(c1)OCO2)N(c1ccc(F)cc1)C1C=CS(=O)(=O)C1 (stereo unspecified)
  IC50: > 100 µM (inactive)
[1]
  IC50: > 100 µM

## CC(=O)Nc1ccc(Oc2cc(C#N)c(C#N)cc2N2CCCCCC2)cc1
  IC50: > 100 µM (inactive)
[1]
  IC50: > 100 µM

## O=C(Nc1cccnc1)c1noc2c1CCCCC2
  IC50: inactive
[2]
  IC50: 97.3 µM
[1]
  IC50: > 100 µM

## Cc1ccc(C)c(N=C2CCCN2Cc2ccccc2)c1C#N
  IC50: > 100 µM (inactive)
[1]
  IC50: > 100 µM

## CCOC(=O)C1(CCSC)NC(c2ccco2)C2C(=O)N(C)C(=O)C21 (stereo unspecified)
  IC50: > 100 µM (inactive)
[1]
  IC50: > 100 µM

## COC(=O)c1sc(NC(=O)COc2cccc3ccccc23)nc1C
  IC50: > 100 µM (inactive)
[1]
  IC50: > 100 µM

## c1ccc2c(c1)ncn2-c1ncnc2sc3c(c12)CCCC3
  IC50: > 100 µM (inactive)
[1]
  IC50: > 100 µM

## CN1CCN(c2nc(N3CCN(CCO)CC3)nc3ccccc23)CC1
  IC50: > 100 µM (inactive)
[1]
  IC50: > 100 µM

## Cc1cccc(-n2nnc3cnn(C)c3c2=O)c1
  IC50: > 100 µM (inactive)
[1]
  IC50: > 100 µM

## O=C(c1ccc(Br)o1)N1CCCc2ccccc21
  IC50: > 100 µM (inactive)
[1]
  IC50: > 100 µM

## CC(=O)NC(CCS(C)(=O)=O)C(=O)Nc1ccccc1Cl (stereo unspecified)
  IC50: > 100 µM (inactive)
[1]
  IC50: > 100 µM

## CC(C)CC[n+]1ccn(-c2nc3ccccc3nc2[N-]S(=O)(=O)c2ccccc2)c1
  IC50: > 100 µM (inactive)
[1]
  IC50: > 100 µM

## CC(C)(C)SCCNC(=O)c1ccc(Cl)c(S(=O)(=O)N2CCOCC2)c1
  IC50: > 100 µM (inactive)
[1]
  IC50: > 100 µM

## Cc1cc(C(=O)Nc2ccccc2)oc1C
  IC50: inactive
[2]
  IC50: 84.2 µM
[1]
  IC50: > 100 µM

## COCCn1c(C)cc(C2=NNC(=Nc3ccccc3)SC2)c1C
  IC50: > 100 µM (inactive)
[1]
  IC50: > 100 µM

## Cc1nnc(NC2CCCCC2)[nH]c1=O
  IC50: > 100 µM (inactive)
[1]
  IC50: > 100 µM

## Cc1c(C(=O)N2CCN(c3ccccc3F)CC2)sc2nc(-c3ccccc3)cn12
  IC50: > 100 µM (inactive)
[1]
  IC50: > 100 µM

## CCC(=O)NCCSc1c[nH]c2ccccc12
  IC50: > 100 µM (inactive)
[1]
  IC50: > 100 µM

## Cc1nn(-c2ccccc2)c2c1C(c1c(C)[nH]c(C#N)c1C)C(C#N)=C(N)O2 (stereo unspecified)
  IC50: > 100 µM (inactive)
[1]
  IC50: > 100 µM

## COc1ccc(S(=O)(=O)N2CCCCC2C(=O)O)cc1OC (stereo unspecified)
  IC50: > 100 µM (inactive)
[1]
  IC50: > 100 µM

## Cc1csc(NC(=O)c2cccn2C)n1
  IC50: inactive
[2]
  IC50: 16.4 µM
[1]
  IC50: > 100 µM

## COc1cccc(-n2c(C)nnc2SCC(=O)Nc2ccccc2N2CCOCC2)c1
  IC50: > 100 µM (inactive)
[1]
  IC50: > 100 µM

## Cc1cc(C)c(C#N)c(SCC(=O)Nc2nnc(-c3ccccc3)s2)n1
  IC50: > 100 µM (inactive)
[1]
  IC50: > 100 µM

## O=c1c(Cl)c(NCCCO)cnn1-c1nc2ccccc2[nH]1
  IC50: inactive
[2]
  IC50: 15.9 µM
[1]
  IC50: 29.2 µM

## CCn1ncc(Br)c1C(=O)Nc1sc2c(c1C(N)=O)CCC2
  IC50: > 100 µM (inactive)
[1]
  IC50: > 100 µM

## COc1ccc(NC(=O)N2CCc3ccccc32)cc1
  IC50: inactive
[2]
  IC50: 6.14 µM
[1]
  IC50: > 100 µM

## Cc1ccc2c(c1)C1CN(C)CCC1N2C(=O)Nc1cccc(Cl)c1 (stereo unspecified)
  IC50: > 100 µM (inactive)
[1]
  IC50: > 100 µM

## CCOc1ccc(-n2cc(C(=O)N3CCC(C)CC3)c3cc(OC)c(OC)cc3c2=O)cc1
  IC50: > 100 µM (inactive)
[1]
  IC50: > 100 µM

## COc1cccc(C(=O)Nc2cccc(C(=O)N3CCOCC3)c2)c1
  IC50: > 100 µM (inactive)
[1]
  IC50: > 100 µM

## O=C(Nc1cccc(-c2cn3cccnc3n2)c1)c1ccc2c(c1)OCO2
  IC50: > 100 µM (inactive)
[1]
  IC50: > 100 µM

## Cc1ccc(-c2nnc3ccc(SCC(=O)NCc4ccco4)nn23)cc1
  IC50: > 100 µM (inactive)
[1]
  IC50: > 100 µM

## Cn1c(/N=C/c2c(O)ccc3ccccc23)nc2ccccc21
  IC50: > 100 µM (inactive)
[1]
  IC50: > 100 µM

## CC(N=c1ccccn1C(=O)Nc1cccc(C(F)(F)F)c1)c1ccco1 (stereo unspecified)
  IC50: > 100 µM (inactive)
[1]
  IC50: > 100 µM

## N#Cc1c(/N=C/c2cc(Br)cs2)sc2c1CCC2
  IC50: > 100 µM (inactive)
[1]
  IC50: > 100 µM

## O=C(c1ccco1)N1CCN(C(=O)c2ccccc2Oc2ccccc2)CC1
  IC50: > 100 µM (inactive)
[1]
  IC50: > 100 µM

## O=C(c1c[nH]c2ccc(S(=O)(=O)N3CCOCC3)cc2c1=O)N1CCCC1
  IC50: > 100 µM (inactive)
[1]
  IC50: > 100 µM

## Cc1nc(N2CCN(C(=O)c3ccco3)CC2)c2c3c(sc2n1)CCCC3
  IC50: > 100 µM (inactive)
[1]
  IC50: > 100 µM

## COc1ccc(-c2cc3nc(C)cc(N)n3n2)cc1
  IC50: inactive
[2]
  IC50: 3.87 µM
[1]
  IC50: > 100 µM

## COCCN1CN(S(=O)(=O)c2ccc(Cl)cc2)c2nc3ccccc3nc21
  IC50: > 100 µM (inactive)
[1]
  IC50: > 100 µM

## COC(=O)c1ccc(NS(=O)(=O)N(C)C)cc1
  IC50: > 100 µM (inactive)
[1]
  IC50: > 100 µM

## CCC(Sc1nc2n[nH]c(C)c2c(=N)n1-c1ccc(C)c(Cl)c1)C(=O)N1CCOCC1 (stereo unspecified)
  IC50: > 100 µM (inactive)
[1]
  IC50: > 100 µM

## Cc1cccc(-n2c(SCC(=O)Nc3nonc3C)nnc2-c2ccoc2C)c1
  IC50: > 100 µM (inactive)
[1]
  IC50: > 100 µM

## CC(NC(=O)Nc1ccc(F)cc1F)c1ccncc1 (stereo unspecified)
  IC50: > 100 µM (inactive)
[1]
  IC50: > 100 µM

## CCCc1nc(-c2ccccc2O)n(-c2ccccc2)n1
  IC50: > 100 µM (inactive)
[1]
  IC50: > 100 µM

## C=CCN(Cc1cccc(OC)c1OC)S(=O)(=O)N(C)C
  IC50: > 100 µM (inactive)
[1]
  IC50: > 100 µM

## CC(C)C1Oc2ccccc2N(CC(=O)N(Cc2ccccn2)CC2CCCO2)C1=O (stereo unspecified)
  IC50: > 100 µM (inactive)
[1]
  IC50: > 100 µM

## COC(=O)Cn1c2ccc(OC)cc2c2nc3ccccc3nc21
  IC50: > 100 µM (inactive)
[1]
  IC50: > 100 µM

## C=CCn1c(SC2CCOC2=O)nc2sc(CC)cc2c1=O (stereo unspecified)
  IC50: > 100 µM (inactive)
[1]
  IC50: > 100 µM

## CCCCC(=O)Nc1ccc(N2CCN(S(C)(=O)=O)CC2)cc1
  IC50: > 100 µM (inactive)
[1]
  IC50: > 100 µM

## O=C(NC(Cc1ccccc1)C(=O)OCC(=O)N1CCc2ccccc21)c1ccco1 (stereo unspecified)
  IC50: > 100 µM (inactive)
[1]
  IC50: > 100 µM
